Reference: ChEMBL document CHEMBL5236560, “Structure-Based Discovery of Potent CARM1 Inhibitors for Solid Tumor and Cancer Immunology Therapy” (J Med Chem, 2021)

Tests used:
[1] = Metabolic stability in dog liver microsomes assessed as parent compound remaining measured after 2 hrs; type: ADME, Canis lupus familiaris, Microsome; conditions: read-out: Stability
[2] = test system: A-375; test: Antiproliferative activity against human A-375 cells assessed as cell growth inhibition incubated for 6 days by SRB assay; type: functional, cell-based; conditions: A-375, 144 h
[3] = Metabolic stability in rat liver microsomes assessed as parent compound remaining measured after 2 hrs; type: ADME, Microsome; conditions: read-out: Stability
[4] = Metabolic stability in monkey liver microsomes assessed as parent compound remaining measured after 2 hrs; type: ADME, Macaca mulatta, Microsome; conditions: rhesus monkey, read-out: Stability
[5] = Half life in ICR mouse at 10 mg/kg, po measured upto 24 hrs by UPLC analysis; type: ADME, organism-based; conditions: in vivo
[6] = Metabolic stability in mouse liver microsomes assessed as parent compound remaining measured after 2 hrs; type: ADME, Microsome; conditions: read-out: Stability
[7] = Metabolic stability in human liver microsomes assessed as parent compound remaining measured after 2 hrs; type: ADME, Microsome; conditions: read-out: Stability
[8] = Cmax in ICR mouse at 10 mg/kg, po measured upto 24 hrs by UPLC analysis; type: ADME, organism-based; parameters: time < 24 hrs, dose 10 mg/kg, route po; conditions: in vivo
[9] = test system: BT-549; test: Antiproliferative activity against human BT-549 cells assessed as cell growth inhibition incubated for 6 days by SRB assay; type: functional, cell-based; conditions: BT-549, 144 h
[10] = AUC(0 to infinity) in ICR mouse at 10 mg/kg, po measured upto 24 hrs by UPLC analysis; type: ADME, organism-based; parameters: dose 10 mg/kg, time < 24 hrs, route po; conditions: in vivo
[11] = Tmax in ICR mouse at 10 mg/kg, po measured upto 24 hrs by UPLC analysis; type: ADME, organism-based; conditions: in vivo
[12] = biological target: T1, Histone-arginine methyltransferase CARM1 (Homo sapiens, UniProt Q86X55); test: Inhibition of human CARM1 (140 to 480 residues) incubated for 15 mins measured after 60 min by AlphaLISA assay
T1 sequence (Q86X55 whole entry): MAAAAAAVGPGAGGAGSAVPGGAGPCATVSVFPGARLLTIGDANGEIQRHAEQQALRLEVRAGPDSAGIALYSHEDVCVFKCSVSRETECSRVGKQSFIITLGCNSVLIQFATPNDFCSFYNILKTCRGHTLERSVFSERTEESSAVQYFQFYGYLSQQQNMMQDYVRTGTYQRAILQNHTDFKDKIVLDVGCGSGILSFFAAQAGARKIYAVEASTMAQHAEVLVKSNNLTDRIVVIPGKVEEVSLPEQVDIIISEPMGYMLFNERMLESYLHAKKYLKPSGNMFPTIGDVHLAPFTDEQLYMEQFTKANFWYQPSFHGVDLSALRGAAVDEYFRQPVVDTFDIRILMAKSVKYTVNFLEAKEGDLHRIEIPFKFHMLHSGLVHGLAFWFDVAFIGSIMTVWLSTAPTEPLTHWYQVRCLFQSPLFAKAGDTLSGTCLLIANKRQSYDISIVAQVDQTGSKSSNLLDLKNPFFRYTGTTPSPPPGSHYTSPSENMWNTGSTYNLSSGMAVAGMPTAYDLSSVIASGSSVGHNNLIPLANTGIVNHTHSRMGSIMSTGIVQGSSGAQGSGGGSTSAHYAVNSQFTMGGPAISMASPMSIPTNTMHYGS

[13] = AUClast in ICR mouse at 10 mg/kg, po measured upto 24 hrs by UPLC analysis; type: ADME, organism-based; parameters: dose 10 mg/kg, time < 24 hrs, route po; conditions: in vivo
[14] = Toxicity in po dosed nude mouse xenografted with human A-375 cells assessed as change in body weight at 100 mg/kg administered once daily measured after 21 days; type: organism-based; conditions: in vivo, 504 h, time 21 day
[15] = Toxicity in po dosed nude mouse xenografted with human BT-549 cells assessed as change in body weight at 75 to 125 mg/kg administered once daily measured after 18 days; type: organism-based; conditions: in vivo, 432 h, dose 75-125 mg/kg, time 18 day
[16] = test system: MDA-MB-453; test: Antiproliferative activity against human MDA-MB-453 cells assessed as cell growth inhibition incubated for 6 days by SRB assay; type: functional, cell-based; conditions: MDA-MB-453, 144 h
[17] = test system: ASPC1; test: Induction of apoptosis in human ASPC1 cells at 15 uM measured after 96 hrs by Annexin V-FITC/PI staining based flow cytometric analysis (reference value: 6.1 %); type: functional
[18] = test system: ASPC1; test: Antiproliferative activity against human ASPC1 cells assessed as cell growth inhibition incubated for 6 days by SRB assay; type: functional, cell-based; conditions: ASPC1, 144 h
[19] = test system: MC-38; test: Antitumor activity against mouse MC38 cells implanted in po dosed C57BL/6J mouse assessed as tumor growth inhibition at 100 mg/kg administered once daily measured after 32 days relative to control; type: functional; conditions: MC-38, 768 h, time 32 day, read-out: TGI
[20] = biological target: T2, Protein arginine N-methyltransferase 7 (Homo sapiens, UniProt Q9NVM4); test: Inhibition of PRMT7 (unknown origin) by radioisotope based assay
T2 sequence (Q9NVM4 whole entry): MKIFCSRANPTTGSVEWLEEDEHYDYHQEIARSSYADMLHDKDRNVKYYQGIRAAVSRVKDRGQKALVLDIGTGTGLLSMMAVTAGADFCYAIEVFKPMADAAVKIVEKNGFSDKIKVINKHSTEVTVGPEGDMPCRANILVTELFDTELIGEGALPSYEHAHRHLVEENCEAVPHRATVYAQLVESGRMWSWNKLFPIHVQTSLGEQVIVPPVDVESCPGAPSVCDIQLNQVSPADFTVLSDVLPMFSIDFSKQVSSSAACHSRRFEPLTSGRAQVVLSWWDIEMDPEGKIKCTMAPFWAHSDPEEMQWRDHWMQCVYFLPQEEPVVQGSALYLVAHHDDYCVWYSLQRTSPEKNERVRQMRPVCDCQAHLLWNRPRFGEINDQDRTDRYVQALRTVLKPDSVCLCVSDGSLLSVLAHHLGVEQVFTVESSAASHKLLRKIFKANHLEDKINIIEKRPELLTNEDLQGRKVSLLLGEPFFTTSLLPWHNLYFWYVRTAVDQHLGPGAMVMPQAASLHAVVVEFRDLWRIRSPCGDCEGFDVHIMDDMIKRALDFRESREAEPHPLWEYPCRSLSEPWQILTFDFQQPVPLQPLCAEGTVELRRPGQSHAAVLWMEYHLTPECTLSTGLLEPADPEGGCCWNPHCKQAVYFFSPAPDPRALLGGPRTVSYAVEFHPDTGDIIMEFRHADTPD

[21] = test system: SMMC-7721; test: Antiproliferative activity against human SMMC-7721 cells assessed as cell growth inhibition incubated for 6 days by SRB assay; type: functional, cell-based; conditions: SMMC-7721, 144 h
[22] = biological target: Protein arginine N-methyltransferase 6 (Homo sapiens, UniProt Q96LA8); test: Inhibition of PRMT6 (unknown origin) incubated for 15 mins measured after 60 min by AlphaLISA assay
Chain of Protein arginine N-methyltransferase 6 (Q96LA8 whole entry): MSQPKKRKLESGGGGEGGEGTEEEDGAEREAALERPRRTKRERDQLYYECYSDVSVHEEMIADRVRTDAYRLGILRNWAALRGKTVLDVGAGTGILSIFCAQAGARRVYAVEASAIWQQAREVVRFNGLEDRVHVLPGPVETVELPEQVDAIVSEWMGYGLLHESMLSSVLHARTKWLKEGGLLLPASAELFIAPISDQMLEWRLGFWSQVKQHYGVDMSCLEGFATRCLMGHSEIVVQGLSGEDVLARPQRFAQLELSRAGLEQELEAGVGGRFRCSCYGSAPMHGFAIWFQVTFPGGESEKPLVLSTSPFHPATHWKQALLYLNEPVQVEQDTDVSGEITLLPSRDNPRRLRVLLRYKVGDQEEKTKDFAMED

[23] = test system: A-375; test: Induction of apoptosis in human A-375 cells at 15 uM measured after 96 hrs by Annexin V-FITC/PI staining based flow cytometric analysis (reference value: 5.6 %); type: functional
[24] = test system: BT-549; test: Antitumor activity against human BT-549 cells xenografted in po dosed nude mouse assessed as tumor growth inhibition at 125 mg/kg administered once daily measured after 18 days relative to control; type: functional; conditions: BT-549, 432 h, time 18 day, read-out: TGI
[25] = test system: BT-549; test: Induction of apoptosis in human BT-549 cells at 15 uM measured after 96 hrs by Annexin V-FITC/PI staining based flow cytometric analysis (reference value: 9.7 %); type: functional
[26] = test system: A-375; test: Antitumor activity against human A-375 cells xenografted in po dosed nude mouse assessed as tumor growth inhibition at 100 mg/kg administered once daily measured after 21 days relative to control; type: functional; conditions: A-375, 504 h, time 21 day, read-out: TGI
[27] = biological target: Protein arginine N-methyltransferase 8 (Homo sapiens, UniProt Q9NR22); test: Inhibition of PRMT8 (unknown origin) incubated for 15 mins measured after 60 min by AlphaLISA assay
Chain of Protein arginine N-methyltransferase 8 (Q9NR22 whole entry): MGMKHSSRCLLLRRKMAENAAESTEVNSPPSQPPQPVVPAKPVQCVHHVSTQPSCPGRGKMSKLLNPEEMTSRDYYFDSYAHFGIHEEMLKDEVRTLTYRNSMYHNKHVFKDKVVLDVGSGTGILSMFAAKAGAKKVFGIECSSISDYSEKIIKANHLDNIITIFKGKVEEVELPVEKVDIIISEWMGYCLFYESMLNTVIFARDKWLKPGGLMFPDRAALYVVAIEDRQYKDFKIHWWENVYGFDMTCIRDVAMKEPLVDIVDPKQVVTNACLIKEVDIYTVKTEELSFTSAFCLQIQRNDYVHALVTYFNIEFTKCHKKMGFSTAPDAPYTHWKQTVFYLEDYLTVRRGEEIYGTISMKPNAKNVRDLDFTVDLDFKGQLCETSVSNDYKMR

[28] = test system: MC-38; test: Antitumor activity against mouse MC38 cells implanted in po dosed BALB/c nude mouse assessed as tumor growth inhibition at 100 mg/kg administered once daily measured after 18 days relative to control; type: functional; conditions: MC-38, 432 h, time 18 day, read-out: TGI
[29] = test system: BT-549; test: Antitumor activity against human BT-549 cells xenografted in po dosed nude mouse assessed as tumor growth inhibition at 75 mg/kg administered once daily measured after 18 days relative to control; type: functional; conditions: BT-549, 432 h, time 18 day, read-out: TGI
[30] = biological target: Protein arginine N-methyltransferase 1 (Homo sapiens, UniProt Q99873); test: Inhibition of PRMT1 (unknown origin) incubated for 15 mins measured after 60 min by AlphaLISA assay
Chain of Protein arginine N-methyltransferase 1 (Q99873 whole entry): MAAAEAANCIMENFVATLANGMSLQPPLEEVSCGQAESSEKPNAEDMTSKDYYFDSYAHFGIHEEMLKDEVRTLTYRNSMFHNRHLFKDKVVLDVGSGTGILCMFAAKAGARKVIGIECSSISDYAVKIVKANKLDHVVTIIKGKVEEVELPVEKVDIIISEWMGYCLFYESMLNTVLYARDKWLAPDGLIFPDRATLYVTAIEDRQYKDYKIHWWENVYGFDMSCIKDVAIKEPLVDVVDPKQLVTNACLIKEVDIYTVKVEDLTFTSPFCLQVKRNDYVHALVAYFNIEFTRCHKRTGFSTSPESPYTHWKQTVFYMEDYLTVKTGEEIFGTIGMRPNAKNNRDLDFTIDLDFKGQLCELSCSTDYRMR

[31] = biological target: Protein arginine N-methyltransferase 3 (Homo sapiens, UniProt O60678); test: Inhibition of PRMT3 (unknown origin) incubated for 15 mins measured after 60 min by AlphaLISA assay
Chain of Protein arginine N-methyltransferase 3 (O60678 whole entry): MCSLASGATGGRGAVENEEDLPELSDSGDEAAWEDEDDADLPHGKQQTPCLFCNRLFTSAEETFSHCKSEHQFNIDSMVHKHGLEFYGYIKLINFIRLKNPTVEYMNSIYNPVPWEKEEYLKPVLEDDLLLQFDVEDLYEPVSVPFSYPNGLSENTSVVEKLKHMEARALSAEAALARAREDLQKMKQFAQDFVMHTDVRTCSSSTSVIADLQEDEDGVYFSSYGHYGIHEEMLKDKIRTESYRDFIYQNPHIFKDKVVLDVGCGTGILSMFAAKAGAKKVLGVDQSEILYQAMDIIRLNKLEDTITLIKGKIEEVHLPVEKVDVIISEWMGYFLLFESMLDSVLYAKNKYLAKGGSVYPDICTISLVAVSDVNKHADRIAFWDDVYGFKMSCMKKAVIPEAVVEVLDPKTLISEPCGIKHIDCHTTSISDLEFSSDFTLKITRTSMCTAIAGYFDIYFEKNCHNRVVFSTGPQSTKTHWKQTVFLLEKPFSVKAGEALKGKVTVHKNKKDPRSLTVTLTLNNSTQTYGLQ

[32] = biological target: Protein arginine N-methyltransferase 5 (Homo sapiens, UniProt O14744); test: Inhibition of PRMT5 (unknown origin) incubated for 15 mins measured after 60 min by AlphaLISA assay
Chain of Protein arginine N-methyltransferase 5 (O14744 whole entry): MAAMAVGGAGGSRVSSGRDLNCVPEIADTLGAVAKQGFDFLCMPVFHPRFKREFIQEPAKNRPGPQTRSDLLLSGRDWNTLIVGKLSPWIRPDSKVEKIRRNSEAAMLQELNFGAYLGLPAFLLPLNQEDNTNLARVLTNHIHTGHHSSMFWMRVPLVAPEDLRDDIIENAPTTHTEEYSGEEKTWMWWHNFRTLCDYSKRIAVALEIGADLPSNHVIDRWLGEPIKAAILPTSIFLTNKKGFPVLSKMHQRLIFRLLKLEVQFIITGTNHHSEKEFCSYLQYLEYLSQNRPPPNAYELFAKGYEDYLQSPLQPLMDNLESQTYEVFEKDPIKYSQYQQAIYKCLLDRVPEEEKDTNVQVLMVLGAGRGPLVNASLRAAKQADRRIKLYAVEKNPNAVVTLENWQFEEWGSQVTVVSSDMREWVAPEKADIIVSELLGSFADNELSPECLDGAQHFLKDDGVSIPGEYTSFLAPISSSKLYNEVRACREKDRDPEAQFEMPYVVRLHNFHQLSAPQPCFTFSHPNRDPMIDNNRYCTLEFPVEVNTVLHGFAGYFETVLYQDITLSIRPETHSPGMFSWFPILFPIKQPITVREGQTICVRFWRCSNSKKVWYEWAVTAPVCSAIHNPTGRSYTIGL

[33] = test system: A-375; test: Antitumor activity against human A-375 cells xenografted in po dosed nude mouse assessed as tumor growth inhibition at 75 mg/kg administered once daily measured after 21 days relative to control; type: functional; conditions: A-375, 504 h, time 21 day, read-out: TGI

CNCCNCc1cccc(-c2nc(NC3CCOCC3)c(C)c(-c3c(C)noc3C)n2)c1
remaining at 2 h [1]: 85.5% | IC50 [2]: > 50 µM | remaining at 2 h [3]: 93.4% | remaining at 2 h [4]: 86.1% | half-life [5]: 6.56 h | remaining at 2 h [6]: 90% | remaining at 2 h [7]: 93.1% | Cmax [8]: 95.4 ng/mL | IC50 [9]: > 50 µM | AUC(0-inf) [10]: 209 ng·h/mL | Tmax [11]: 1.33 h | IC50 [12]: 0.00163 µM | AUC(0-t) at 24 h [13]: 199 ng·h/mL

CNCCNCc1cccc(-c2nc(-c3c(C)noc3C)c(C)c(N3CCS(=O)(=O)CC3)n2)c1
IC50 [2]: > 50 µM | IC50 [9]: > 50 µM | IC50 [12]: 0.00246 µM

CNCCNCc1cccc(-c2nc(NC3CCOCC3)c(C)c(-c3ccncc3)n2)c1
IC50 [2]: 44.3 µM | IC50 [9]: > 50 µM | IC50 [12]: 0.00368 µM

CNCCNCc1cccc(-c2nc(Nc3ccccc3)c(C)c(-c3c(C)noc3C)n2)c1
Activity [14]: Non-Toxic | Activity [15]: Non-Toxic | IC50 [16]: 5.7 µM | Activity [17]: 17.2% | IC50 [18]: 12.3 µM | inhibition in vivo at 100 mg/kg [19]: 79.6% | IC50 [2]: 5.9 µM | IC50 [20]: > 50 µM | IC50 [21]: 5.5 µM | IC50 [22]: 0.49 µM | Activity [23]: 44% | IC50 [9]: 8.8 µM | inhibition in vivo at 125 mg/kg [24]: 61.5% | Activity [25]: 46.1% | inhibition in vivo at 100 mg/kg [26]: 69% | IC50 [27]: 0.92 µM | inhibition in vivo at 100 mg/kg [28]: 23.3% | inhibition in vivo at 75 mg/kg [29]: 38% | IC50 [30]: > 1 µM | IC50 [31]: > 1 µM | IC50 [32]: > 50 µM

CNC[C@@H](O)COc1ccc(Cl)c(-c2nc(-c3c(C)noc3C)c(C)c(N3CC4(CCN(C(=O)OC)CC4)C3)n2)c1
inhibition in vivo at 75 mg/kg [33]: 24% | inhibition in vivo at 100 mg/kg [26]: 82.6%

CNCCNCc1cccc(-c2nc(-c3c(C)noc3C)c(C)c(N3Cc4cccnc4C3)n2)c1
IC50 [2]: 8.2 µM | IC50 [9]: 11.9 µM | IC50 [12]: 0.00113 µM

CNCCNCc1cccc(-c2nc(NC3CCOCC3)c(C)c(-c3cn(C)nc3C)n2)c1
IC50 [2]: > 50 µM | IC50 [9]: > 50 µM | IC50 [12]: 0.00378 µM

CNCCNCc1cccc(-c2nc(NC3CCOCC3)c(C)c(-c3ccnn3C)n2)c1
IC50 [2]: > 50 µM | IC50 [9]: > 50 µM | IC50 [12]: 0.00294 µM

CNCCNCc1cccc(-c2nc(NC3CCOCC3)c(C)c(-c3ccc(O)cc3)n2)c1
IC50 [2]: 24.1 µM | IC50 [9]: 23.7 µM | IC50 [12]: 0.0023 µM

CNCCNCc1cccc(-c2nc(-c3c(C)noc3C)c(C)c(N3CCN(S(C)(=O)=O)CC3)n2)c1
IC50 [2]: > 50 µM | IC50 [9]: > 50 µM | IC50 [12]: 0.00078 µM
